Data: Sander's compilation of Henry's law constants (doi:10.1016/s0021-9673(98)00877-2)

Assay: Henry solubility constant Hcp at 298.15 K (mol/(m3 Pa))
Settings: reference: Dewulf et al. (1999)

| SMILES | Henry solubility constant Hcp |
| --- | --- |
| C1CCCCC1 [cyclohexane] | 5.2e-05 |
| c1ccc2ccccc2c1 [naphthalene] | 0.013 |
| Clc1cc(Cl)cc(Cl)c1 [1,3,5-trichlorobenzene] | 0.0018 |
| ClCC(Cl)Cl [1,1,2-trichloroethane] | 0.011 |
| Cc1ccccc1 [methylbenzene] | 0.0015 |
| COc1ccccc1 [methoxybenzene] | 0.026 |
| CC(Cl)CCl (centres undefined) [1,2-dichloropropane] | 0.0035 |
| O=[N+]([O-])c1ccccc1 [nitrobenzene] | 0.023 |
| Clc1ccccc1 [chlorobenzene] | 0.0025 |
| ClC(Cl)=C(Cl)C(Cl)=C(Cl)Cl [hexachlorobutadiene] | 0.00062 |
| Fc1ccccc1 [fluorobenzene] | 0.0014 |
| ClC=C(Cl)Cl [trichloroethene] | 0.00095 |
| C=C(Cl)Cl [1,1-dichloroethene] | 0.00037 |
| Clc1cccc(Cl)c1Cl [1,2,3-trichlorobenzene] | 0.0036 |
